Reference: patent US6585967B2, “Adhesive treatment for tinea cruris” (Closure Medical Corporation, priority 2001, dated 2003)

Assay: Observation of haloprogin / 2-octyl cyanoacrylate monomer composition after preparation
Type: physicochemical
Protocol: A 2-octyl cyanoacrylate monomer composition is prepared by adding 30 mg of haloprogin, an anti-fungal agent, to 2 mL of 2-octyl cyanoacrylate monomer. The mixture is sealed in a glass vial and stirred. The characteristics of the composition are observed at about one minute after preparation and later at least twenty-four hours after preparation.

premature polymerization of the monomer (stability) (30 mg haloprogin in 2 mL 2-octyl cyanoacrylate monomer, at least twenty-four hours after preparation): does not cause premature polymerization | solubility of haloprogin in the monomer (30 mg in 2 mL 2-octyl cyanoacrylate monomer, about one minute and at least twenty-four hours after preparation): soluble in the monomer
SMILES: Clc1cc(Cl)c(OCC#CI)cc1Cl [haloprogin]
